Here are results for 27 compounds from the supplement of paper PMC12613149.

A short description of series [1]: reversed-phase LC retention time (C18, 15 min MeOH gradient); higher = more hydrophobic / later elution.
Series [2] is described as follows: collision cross section (TIMS, N2 drift gas) of the primary ion; higher = larger gas-phase ion size.
Setting [3] is: ionization mode: ESI+, ion species: [M+H]+.
The mark [4] stands for this setting: ionization mode: ESI-, ion species: [M-H]-.
Where [5] appears, read: ionization mode: ESI+, ion species: [M]+.

`COc1ccc(-c2coc3cc(O)ccc3c2=O)cc1` [Formononetin]: the “reversed-phase LC retention time” value was 13.2 min in series [1] (setting [3]) and 12.2 min in series [1] (setting [4]). Besides, the collision cross section in series [2] (setting [3]) is given as 158.9 Å²; in series [2] (setting [4]), 163.97 Å².

As to `COc1cc2ccc(=O)oc2c(O)c1O` [Fraxetin], the “reversed-phase LC retention time” value in series [1] (setting [3]) was 8.29 min. In addition, in series [2] (setting [3]), the collision cross section was 138.67 Å².

For the compound `COc1cc2ccc(=O)oc2c(O)c1OC` [Fraxidin], the “reversed-phase LC retention time” value was 9.58 min in series [1] (setting [3]) and 8.57 min in series [1] (setting [4]). Moreover, the results for the collision cross section in series [2] (setting [3]) and in series [2] (setting [4]) were 143.3 Å² and 145.19 Å², respectively.

On to `NS(=O)(=O)c1cc(C(=O)O)c(NCc2ccco2)cc1Cl` [Furosemide], for which the “reversed-phase LC retention time” value in series [1] (setting [3]) turned out to be 14.3 min; in series [1] (setting [4]), 9.47 min. The results for the collision cross section in series [2] (setting [3]) and in series [2] (setting [4]) were 161.99 Å² and 172.55 Å², respectively.

Regarding `O=C1CC2(CCCCC2)CN1` [Gabapentin-Lactam], the “reversed-phase LC retention time” value in series [1] (setting [3]) is 11.2 min. In series [2] (setting [3]), the collision cross section was 135.35 Å².

With `NCC1(CC(=O)O)CCCCC1` [Gabapentin], the “reversed-phase LC retention time” value in series [1] (setting [3]) was determined as 7.2 min. The collision cross section in series [2] (setting [3]) was 139.22 Å².

On to `COc1ccc2c3c1O[C@H]1C[C@@H](O)C=C[C@@]31CCN(C)C2` [Galantamine], for which the “reversed-phase LC retention time” value in series [1] (setting [3]) amounted to 5.92 min. In series [2] (setting [3]), the collision cross section stood at 169.25 Å².

As to `O=c1c(-c2ccc(O)cc2)coc2cc(O)cc(O)c12` [Genistein], the “reversed-phase LC retention time” value is 11.9 min in series [1] (setting [3]) and 10.2 min in series [1] (setting [4]). Also, the values for the collision cross section in series [2] (setting [3]) and in series [2] (setting [4]) were 160.2 Å² and 159.59 Å², respectively.

For the compound `C#C[C@]1(O)C=C[C@H]2[C@@H]3CCC4=CC(=O)CC[C@@H]4[C@H]3CC[C@@]21CC` [Gestoden], the “reversed-phase LC retention time” value in series [1] (setting [3]) worked out at 14 min. The same compound yielded a collision cross section in series [2] (setting [3]) of 181.55 Å².

With `COc1ccc(Cl)cc1C(=O)NCCc1ccc(S(=O)(=O)NC(=O)NC2CCCCC2)cc1` [Glibenclamide], the entries for the “reversed-phase LC retention time” value in series [1] (setting [3]) and in series [1] (setting [4]) were 14.8 min and 14 min, respectively. Besides, the collision cross section in series [2] (setting [3]) was found to be 208.58 Å²; in series [2] (setting [4]) it was 214.7 Å².

In the case of `CCC1=C(C)CN(C(=O)NCCc2ccc(S(=O)(=O)NC(=O)NC3CCC(C)CC3)cc2)C1=O` (configuration not stated) [Glimepiride], the figures for the “reversed-phase LC retention time” value in series [1] (setting [3]) and in series [1] (setting [4]) were 15.3 min and 14.3 min, respectively. In addition, the collision cross section in series [2] (setting [3]) is on record as 216.66 Å²; in series [2] (setting [4]) it was 215.02 Å².

For `CC1(C)[C@@H](O[C@H]2O[C@H](C(=O)O)[C@@H](O)[C@H](O)[C@H]2O[C@@H]2O[C@H](C(=O)O)[C@@H](O)[C@H](O)[C@H]2O)CC[C@]2(C)[C@H]3C(=O)C=C4[C@@H]5C[C@@](C)(C(=O)O)CC[C@]5(C)CC[C@@]4(C)[C@]3(C)CC[C@@H]12` [Glycyrrhizic acid], in series [1] (setting [4]), the “reversed-phase LC retention time” value is 11.8 min. Also, the collision cross section in series [2] (setting [4]) was found to be 282.7 Å².

Take `NC(N)=NC(=O)Cc1c(Cl)cccc1Cl` [Guanfacine]: in series [1] (setting [3]), the “reversed-phase LC retention time” value was determined as 9.65 min. This compound also registered a collision cross section in series [2] (setting [3]) of 152.13 Å².

For the compound `O=C(O)C(F)(OC(F)(F)C(F)(F)C(F)(F)F)C(F)(F)F` (configuration not stated) [HFPO-DA], the “reversed-phase LC retention time” value in series [1] (setting [4]) amounted to 13 min. The compound further gave a collision cross section in series [2] (setting [4]) of 206.28 Å².

Regarding `CC(Oc1ccc(Oc2ncc(C(F)(F)F)cc2Cl)cc1)C(=O)O` (configuration not stated) [Haloxyfop-P], the “reversed-phase LC retention time” value in series [1] (setting [3]) stood at 15.5 min; in series [1] (setting [4]) it was 14 min. Besides, the collision cross section in series [2] (setting [3]) is recorded as 181.48 Å²; in series [2] (setting [4]), 190.86 Å².

Turning to `Cc1nccc2c1[nH]c1ccccc12` [Harman], the “reversed-phase LC retention time” value was 8.86 min in series [1] (setting [3]) and 13.4 min in series [1] (setting [4]). The collision cross section was 136.39 Å² in series [2] (setting [3]) and 135.7 Å² in series [2] (setting [4]).

For `COc1ccc2c(c1)[nH]c1c(C)nccc12` [Harmine], the “reversed-phase LC retention time” value in series [1] (setting [3]) was determined as 9.71 min; in series [1] (setting [4]) it was 13.5 min. For the same compound, the collision cross section in series [2] (setting [3]) was 145.04 Å²; in series [2] (setting [4]), 145.84 Å².

Consider `BrC1CCC(Br)C(Br)CCC(Br)C(Br)CCC1Br` (configuration not stated) [Hexabromocyclododecane (two peaks)], for which, in series [1] (setting [4]), the “reversed-phase LC retention time” value was 18.9 min. The collision cross section in series [2] (setting [4]) came out at 178.05 Å².

For `CCCCCCCCCCCCCCCC[n+]1ccccc1` [Hexadecylpyridinium], in series [1] (setting [5]), the “reversed-phase LC retention time” value came out at 17.5 min. The same compound yielded a collision cross section in series [2] (setting [5]) of 197.5 Å².

As to `CCCCCCCCCCCCCCCC[N+](C)(C)C` [Hexadecyltrimethylammonium], in series [1] (setting [5]), the “reversed-phase LC retention time” value was 17.4 min. In addition, in series [2] (setting [5]), the collision cross section was 196.39 Å².

With `NS(=O)(=O)c1cc2c(cc1Cl)NCNS2(=O)=O` [Hydrochlorothiazide], in series [1] (setting [4]), the “reversed-phase LC retention time” value is 4.93 min. This compound also gave a collision cross section in series [2] (setting [4]) of 152.66 Å².

As to `CC(=O)OCC(=O)[C@@]1(O)CC[C@H]2[C@@H]3CCC4=CC(=O)CC[C@]4(C)[C@H]3[C@@H](O)C[C@@]21C` [Hydrocortisonacetate], in series [1] (setting [4]), the “reversed-phase LC retention time” value is 13.7 min. The same compound showed a collision cross section in series [2] (setting [4]) of 198.1 Å².

Take `C[C@]12CCC(=O)C=C1CC[C@@H]1[C@@H]2[C@@H](O)C[C@@]2(C)[C@H]1CC[C@]2(O)C(=O)CO` [Hydrocortisone]: the “reversed-phase LC retention time” value in series [1] (setting [3]) was 12.4 min. The same compound had a collision cross section in series [2] (setting [3]) of 189.25 Å².

`O=c1c(O[C@@H]2O[C@H](CO)[C@H](O)[C@H](O)[C@H]2O)c(-c2ccc(O)c(O)c2)oc2cc(O)cc(O)c12` [Hyperin]: the “reversed-phase LC retention time” value in series [1] (setting [4]) is 7.66 min. In series [2] (setting [4]), the collision cross section is listed as 201.31 Å².

For the compound `CCC(C)OC(=O)N1CCCCC1CCO` (configuration not stated) [Icaridin], the “reversed-phase LC retention time” value in series [1] (setting [3]) is 13.6 min. In addition, the collision cross section in series [2] (setting [3]) stood at 152.87 Å².

For `O=P1(NCCCl)OCCCN1CCCl` (configuration not stated) [Ifosfamide], the “reversed-phase LC retention time” value in series [1] (setting [3]) was 10.2 min. In series [2] (setting [3]), this compound returned a collision cross section of 148.36 Å².

For `C=CCOC(Cn1ccnc1)c1ccc(Cl)cc1Cl` (configuration not stated) [Imazalil], the “reversed-phase LC retention time” value in series [1] (setting [3]) was found to be 12.7 min. The compound further showed a collision cross section in series [2] (setting [3]) of 167.87 Å².
